We go through 18 compounds from patent US6699896B1, “Oxazole-aryl-carboxylic acids useful in the treatment of insulin resistance and hyperglycemia” (Wyeth, priority 1998, dated 2004).

Marks after values point to notes of the source that are not given here.

Data set [1] concerns diabetic (ob/ob) mice. Briefly: Blood glucose lowering in diabetic (ob/ob) mice. Particulars: dose 100 mg/Kg, plasma glucose. It is filed as in vivo, mouse. The source says: The procedures used and results obtained are briefly described below.
The non-insulin dependent diabetic (NIDDM) syndrome can be typically characterizes by obesity, hyperglycemia, abnormal insulin secretion, hyperinsulinemia and insulin resistance.
In each test procedure, mice [Male or female ob/ob (C57 B1/6J) and their lean litermates (ob/+ or +/+, Jackson Laboratories) ages 2 to 5 months (10 to 65 g)] of a similar age were randomized according to body weight into 4 groups of 10 mice. The mice were housed 5 per cage and are maintained on normal rodent chow with water ad libitum. Mice received test compound daily by gavage (suspended in 0.5 ml of 0.5% methyl cellulose); dissolved in the drinking water; or admixed in the diet. The dose of compounds given ranges from 2.5 to 200 mg/kg body weight/day. The dose is calculated based on the fed weekly body weight and is expressed as active moiety. […]
On the morning of Day 4, 7 or 14 two drops of blood (approximately 50 ul) were collected into sodium fluoride containing tubes either from the tail vein or after decapitation. […] The plasma was isolated by centrifugation and the concentration of glucose is measured enzymatically on an Abbott V.P. Analyzer.
For each mouse, the percentage change in plasma glucose on Day 4, 7 or 14 is calculated relative to the mean plasma glucose of the vehicle treated mice. […]

Data set [2] deals with T1, Human recombinant PTP1B (Homo sapiens, UniProt P18031).
T1 construct: made in house
T1 sequence (P18031 1-435): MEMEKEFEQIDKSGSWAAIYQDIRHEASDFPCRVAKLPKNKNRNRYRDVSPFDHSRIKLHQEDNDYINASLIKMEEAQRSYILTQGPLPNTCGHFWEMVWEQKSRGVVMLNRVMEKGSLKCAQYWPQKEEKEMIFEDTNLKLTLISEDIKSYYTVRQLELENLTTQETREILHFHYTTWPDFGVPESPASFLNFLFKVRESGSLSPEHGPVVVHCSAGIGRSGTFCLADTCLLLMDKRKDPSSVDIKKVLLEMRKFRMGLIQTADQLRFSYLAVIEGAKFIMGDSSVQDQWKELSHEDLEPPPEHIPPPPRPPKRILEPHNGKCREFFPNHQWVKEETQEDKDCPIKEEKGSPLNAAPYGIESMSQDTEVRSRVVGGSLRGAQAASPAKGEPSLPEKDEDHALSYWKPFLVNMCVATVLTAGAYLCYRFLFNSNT
In kind it is biochemical. Particulars: for IC50: recombinant PTP1B, malachite green phosphate detection; for percent of phosphatase control (change) at single concentration: compound at 2.5 uM.

The subject of data set [3] is rat hepatic microsomal PTPases. Particulars: PTPase activity, compound at 50 μM, rat liver microsomes.

On to `Cc1oc(-c2ccc(C(F)(F)F)cc2)nc1-c1ccc(-c2ccc(OCC(=O)O)cc2)cc1` [Example 5, {4′-[5-Methyl-2-(4-trifluoromethyl-phenyl)-oxazol-4-yl]-biphenyl-4-yloxy}-acetic Acid], for which, in data set [1], the “% Change Glucose from Vehicle” value is −40^a %. Also, the half-maximal inhibitory concentration (IC50) in data set [2] worked out at 0.85 µM. In the case of `Cc1oc(-c2ccc(C(F)(F)F)cc2)nc1-c1ccc(-c2cccc(Cn3oc(=O)[nH]c3=O)c2)cc1` [Example 14, 2-{4′-[5-Methyl-2-(4-trifluoromethyl-phenyl)-oxazol-4-yl]-biphenyl-3-ylmethyl}-[1,2,4]oxadiazolidine-3,5-dione], the melting point lay within 216 to 218 °C. In data set [2], the “percent of phosphatase control (change) at single concentration” value (shortened to “percent of phosphatase control (change)”) is −65 (2.5 uM) %. As to `Cc1oc(-c2ccc(C(F)(F)F)cc2)nc1-c1cccc(-c2ccc(O)cc2)c1` [Example 4, 3′-[5-Methyl-2-(4-trifluoromethyl-phenyl)-oxazol-4-yl]-biphenyl-4-ol], in data set [3], the “% Change from Control” value is −28%. For the compound `Cc1oc(-c2ccc(C(F)(F)F)cc2)nc1-c1ccc(-c2ccc(O)cc2)cc1` [Example 3, 4′-[5-Methyl-2-(4-trifluoromethyl-phenyl)-oxazol-4-yl]-biphenyl-4-ol], the “percent of phosphatase control (change)” value in data set [2] is recorded as −56 (2.5 uM) %.

On to `COc1ccc(-c2cccc(-c3nc(-c4ccc(C(F)(F)F)cc4)oc3C)c2)cc1` [Example 2, 4-(4′-Methoxy-biphenyl-3-yl)-5-methyl-2-(4-trifluoromethyl-phenyl)-oxazole], for which the melting point is 93 to 94 °C. Moreover, the “percent of phosphatase control (change)” value in data set [2] is given as −47 (2.5 uM) %. “Ammonium molybdate tetrahydrate [reference compound]”: in data set [2], the IC50 came out at 8.7 µM. With `Cc1oc(-c2ccc(C(F)(F)F)cc2)nc1-c1ccc2c(Br)c(OCC(=O)O)ccc2c1` [Example 16, {1-Bromo-6-[5-methyl-2-(4-trifluoromethyl-phenyl)-oxazol-4-yl]-naphthalen-2-yloxy}-acetic Acid], in data set [2], the IC50 is 1.2 µM. The “% Change from Control” value in data set [3] was −20%. Consider `Cc1oc(-c2ccc(C(F)(F)F)cc2)nc1-c1ccc(-c2ccc(OC(Cc3ccccc3)C(=O)O)cc2)cc1` (stereo not drawn) [Example 7, 2-{4′-[5-Methyl-2-(4-trifluoromethyl-phenyl)-oxazol-4-yl]-biphenyl-4-yloxy}-3-phenyl-propionic Acid], for which the IC50 in data set [2] turned out to be 1.29 µM. Moreover, in data set [3], the “% Change from Control” value is recorded as −74%. The compound `Cc1oc(-c2ccc(C(F)(F)F)cc2)nc1-c1ccc(-c2ccc(Cn3oc(=O)[nH]c3=O)cc2)cc1` [Example 13, 2-{4′-[5-Methyl-2-(4-trifluoromethyl-phenyl)-oxazol-4-yl]-biphenyl-4-ylmethyl}-[1,2,4]oxadiazolidine-3,5-dione] displayed a melting point of 196 to 198 °C. Moreover, the IC50 in data set [2] stood at 1.15 µM. Take `Cc1oc(-c2ccc(C(F)(F)F)cc2)nc1-c1ccc(-c2cc(Br)c(OC(Cc3ccccc3)C(=O)O)c(Br)c2)cc1` (stereo not drawn) [Example 12, 2-{3,5-Dibromo-4′-[5-methyl-2-(4-trifluoromethyl-phenyl)-oxazol-4-yl]-biphenyl-4-yloxy}-3-phenyl-propionic Acid]: the IC50 in data set [2] was determined as 0.13 µM. Besides, the “% Change from Control” value in data set [3] was −68%. For `Cc1oc(-c2ccc(C(F)(F)F)cc2)nc1-c1ccc(-c2cc(Br)c(OCC(=O)O)c(Br)c2)cc1` [Example 10, {3,5-Dibromo-4′-[5-methyl-2-(4-trifluoromethyl-phenyl)-oxazol-4-yl]-biphenyl-4-yloxy}-acetic Acid], the half-maximal inhibitory concentration (IC50) in data set [2] worked out at 0.47 µM. Also, the “% Change from Control” value in data set [3] is reported as −35%. For `COC(=O)C(Cc1ccccc1)Oc1c(Br)cc(-c2ccc(-c3nc(-c4ccc(C(F)(F)F)cc4)oc3C)cc2)cc1Br` (stereo not drawn) [Example 11, 2-{3,5-Dibromo-4′-[5-methyl-2-(4-trifluoromethyl-phenyl)-oxazol-4-yl]-biphenyl-4-yloxy}-3-phenyl-propionic Acid Methyl Ester], the melting point was in the range of 70 to 72 °C. For the same compound, the “percent of phosphatase control (change)” value in data set [2] was −40 (2.5 uM) %. On to `Cc1oc(-c2ccc(C(F)(F)F)cc2)nc1-c1ccc2c(Br)c(OC(Cc3ccccc3)C(=O)O)ccc2c1` (stereo not drawn) [Example 17, 2-{1-Bromo-6-[5-methyl-2-(4-trifluoromethyl-phenyl)-oxazol-4-yl]-naphthalen-2-yloxy}-3-phenyl-propionic Acid], for which, in data set [2], the IC50 amounted to 0.98 µM. In addition, the “% Change from Control” value in data set [3] was −54%. `Cc1oc(-c2ccc(C(F)(F)F)cc2)nc1-c1ccc(-c2ccc(OCc3nnn[nH]3)cc2)cc1` [Example 15, 5-{4′-[-Methyl-2-(4-trifluoromethyl-phenyl)-oxazol-4-yl]-biphenyl-4-yloxymethyl}-1H-tetrazole] came in with a melting point of 226 to 227 °C. Moreover, the IC50 in data set [2] worked out at 0.93 µM. The “% Change from Control” value in data set [3] is −47%. Turning to `Cc1oc(-c2ccc(C(F)(F)F)cc2)nc1-c1cccc(-c2ccc(OC(Cc3ccccc3)C(=O)O)cc2)c1` (stereo not drawn) [Example 8, 2-{3′-[5-Methyl-2-(4-trifluoromethyl-phenyl)-oxazol-4-yl]-biphenyl-4-yloxy}-3-phenyl-propionic Acid], the IC50 in data set [2] came to 1.25 µM. The “% Change from Control” value in data set [3] is recorded as −78%. On to `Cc1oc(-c2ccc(C(F)(F)F)cc2)nc1-c1ccc(-c2cc(Br)c(O)c(Br)c2)cc1` [Example 9, 3,5-Dibromo-4′-[5-methyl-2-(4-trifluoromethyl-phenyl)-oxazol-4-yl]-biphenyl-4-ol], for which, in data set [2], the IC50 was 0.65 µM. Also, the “% Change from Control” value in data set [3] is on record as −20%. `COc1ccc(-c2ccc(-c3nc(-c4ccc(C(F)(F)F)cc4)oc3C)cc2)cc1` [Example 1, 4-(4′-Methoxy-biphenyl-4-yl)-5-methyl-2-(4-trifluoromethyl-phenyl)-oxazole] came in with a melting point of 167 to 168 °C. Besides, the IC50 in data set [2] is 1.66 µM. Consider `CC1(COc2ccc(CC3SC(=O)NC3=O)cc2)CCCCC1` (stereo not drawn) [Ciglitazone, 5-(4-(1-methylcyclohexylmethoxy)benzyl)-2,4-dione, reference compound], for which the “% Change Glucose from Vehicle” value in data set [1] is recorded as −43%.
